pIC50: −log10 of the molar value.
Target: Cdk9/cyclinT1 (Homo sapiens, UniProt P50750)
Experiment: Cdk9/cyclinT1 IMAP protocol (fluorescence polarization)
Details: IC-50, CDK9; lower limit of assay 0.0005 micromolar

Chain of Cdk9/cyclinT1 (P50750 whole entry): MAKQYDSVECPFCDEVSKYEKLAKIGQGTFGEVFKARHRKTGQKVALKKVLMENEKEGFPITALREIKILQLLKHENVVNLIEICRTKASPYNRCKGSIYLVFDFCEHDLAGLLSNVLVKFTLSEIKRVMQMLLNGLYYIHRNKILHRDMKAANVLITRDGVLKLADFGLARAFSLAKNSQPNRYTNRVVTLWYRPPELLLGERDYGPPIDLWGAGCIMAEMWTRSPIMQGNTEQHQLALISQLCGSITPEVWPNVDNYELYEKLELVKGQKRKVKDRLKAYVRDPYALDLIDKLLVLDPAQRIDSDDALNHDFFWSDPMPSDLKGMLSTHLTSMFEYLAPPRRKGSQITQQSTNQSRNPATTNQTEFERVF
Chain of Cdk9/cyclinT1 (O60563 whole entry partner): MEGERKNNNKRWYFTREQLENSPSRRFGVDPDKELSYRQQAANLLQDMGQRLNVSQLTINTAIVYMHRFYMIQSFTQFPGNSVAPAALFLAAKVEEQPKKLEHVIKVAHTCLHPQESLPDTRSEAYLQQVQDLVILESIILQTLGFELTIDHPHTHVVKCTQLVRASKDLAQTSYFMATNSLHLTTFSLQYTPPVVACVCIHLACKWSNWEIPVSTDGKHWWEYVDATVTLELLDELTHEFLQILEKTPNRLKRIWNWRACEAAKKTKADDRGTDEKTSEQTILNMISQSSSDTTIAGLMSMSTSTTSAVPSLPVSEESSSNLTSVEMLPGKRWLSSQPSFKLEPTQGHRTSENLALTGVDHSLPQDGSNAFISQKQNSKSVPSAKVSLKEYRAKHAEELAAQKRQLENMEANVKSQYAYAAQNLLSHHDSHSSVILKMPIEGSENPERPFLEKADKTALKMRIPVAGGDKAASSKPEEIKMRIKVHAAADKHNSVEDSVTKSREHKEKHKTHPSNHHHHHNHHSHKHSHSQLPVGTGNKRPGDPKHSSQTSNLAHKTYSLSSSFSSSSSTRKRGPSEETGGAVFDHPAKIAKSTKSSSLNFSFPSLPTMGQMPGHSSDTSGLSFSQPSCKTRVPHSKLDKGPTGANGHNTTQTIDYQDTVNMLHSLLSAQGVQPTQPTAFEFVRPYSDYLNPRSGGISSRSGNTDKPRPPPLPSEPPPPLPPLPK

Row | pIC50 | SMILES
1 | > 9.30 | N#CC1(CNc2cccc(-c3cc(N[C@H]4CC[C@H](N[C@@H]5CCOC5)CC4)ncc3Cl)n2)CCOCC1 [Compound 470, 4-(((5′-chloro-2′-((trans-4-(((R)-tetrahydrofuran-3-yl)amino)cyclohexyl)amino)-[2,4′-bipyridin]-6-yl)amino)methyl)tetrahydro-2H-pyran-4-carbonitrile]
2 | > 9.30 | N#CC1(CNc2cccc(-c3cc(N[C@H]4CC[C@H](NC[C@@H]5CCCO5)CC4)ncc3Cl)n2)CCOCC1 [Compound 472, 4-(((5′-chloro-2′-((trans-4-((((S)-tetrahydrofuran-2-yl)methyl)amino)cyclohexyl)amino)-[2,4′-bipyridin]-6-yl)amino)methyl)tetrahydro-2H-pyran-4-carbonitrile]
3 | > 9.30 | N#CC1(CNc2cccc(-c3cc(N[C@H]4CC[C@H](NC[C@H]5CCCO5)CC4)ncc3Cl)n2)CCOCC1 [Compound 473, 4-(((5′-chloro-2′-((trans-4-((((R)-tetrahydrofuran-2-yl)methyl)amino)cyclohexyl)amino)-[2,4′-bipyridin]-6-yl)amino)methyl)tetrahydro-2H-pyran-4-carbonitrile]
4 | > 9.30 | COCCN[C@H]1CC[C@H](Nc2cc(-c3cccc(NCC4(C#N)CCOCC4)n3)c(F)cn2)CC1 [Compound 474, 4-(((5′-fluoro-2′-((trans-4-((2-methoxyethyl)amino)cyclohexyl)amino)-[2,4′-bipyridin]-6-yl)amino)methyl)tetrahydro-2H-pyran-4-carbonitrile]
5 | 9.22 | CO[C@H]1CCN([C@H]2CC[C@H](Nc3cc(-c4cccc(NCC5(C#N)CCOCC5)n4)c(Cl)cn3)CC2)C1 [Compound 475, 4-(((5′-chloro-2′-((trans-4-((S)-3-methoxypyrrolidin-1-yl)cyclohexyl)amino)-[2,4′-bipyridin]-6-yl)amino)methyl)tetrahydro-2H-pyran-4-carbonitrile]
6 | 8.27 | CO[C@H]1CCN([C@H]2CC[C@@H](Nc3cc(-c4cccc(NCC5(C#N)CCOCC5)n4)c(Cl)cn3)CC2)C1 [Compound 476, 4-(((5′-chloro-2′-((cis-4-((S)-3-methoxypyrrolidin-1-yl)cyclohexyl)amino)-[2,4′-bipyridin]-6-yl)amino)methyl)tetrahydro-2H-pyran-4-carbonitrile]
7 | 9.10 | CO[C@@H]1CCN([C@H]2CC[C@H](Nc3cc(-c4cccc(NCC5(C#N)CCOCC5)n4)c(Cl)cn3)CC2)C1 [Compound 477, 4-(((5′-chloro-2′-((trans-4-((R)-3-methoxypyrrolidin-1-yl)cyclohexyl)amino)-[2,4′-bipyridin]-6-yl)amino)methyl)tetrahydro-2H-pyran-4-carbonitrile]
8 | 7.72 | CO[C@@H]1CCN([C@H]2CC[C@@H](Nc3cc(-c4cccc(NCC5(C#N)CCOCC5)n4)c(Cl)cn3)CC2)C1 [Compound 478, 4-(((5′-chloro-2′-((cis-4-((R)-3-methoxypyrrolidin-1-yl)cyclohexyl)amino)-[2,4′-bipyridin]-6-yl)amino)methyl)tetrahydro-2H-pyran-4-carbonitrile]
9 | > 9.30 | N#CC1(CNc2cccc(-c3cc(N[C@H]4CC[C@H](N)CC4)ncc3F)n2)CCOCC1 [Compound 479, 4-(((2′-((trans-4-aminocyclohexyl)amino)-5′-fluoro-[2,4′-bipyridin]-6-yl)amino)methyl)tetrahydro-2H-pyran-4-carbonitrile]
10 | > 9.30 | COC[C@@H](C)N[C@H]1CC[C@H](Nc2cc(-c3cccc(NCC4(C#N)CC4)n3)c(F)cn2)CC1 [Compound 480, 1-(((5′-fluoro-2′-((trans-4-(((R)-1-methoxypropan-2-yl)amino)cyclohexyl)amino)-[2,4′-bipyridin]-6-yl)amino)methyl)cyclopropane-carbonitrile]
11 | > 9.30 | COCCN[C@H]1CC[C@H](Nc2cc(-c3ccc(F)c(NCC4(C)CCOCC4)n3)c(Cl)cn2)CC1 [Compound 481, 5′-chloro-5-fluoro-N2′-(trans-4-((2-methoxyethyl)amino)cyclohexyl)-N6-((4-methyltetrahydro-2H-pyran-4-yl)methyl)-[2,4′-bipyridine]-2′,6-diamine]
12 | > 9.30 | N#CC1(CNc2cccc(-c3cc(N[C@H]4CC[C@H](NCC5CCCO5)CC4)ncc3F)n2)CCOCC1 (stereo partly drawn) [Compound 482, 4-(((5′-fluoro-2′-((trans-4-(((tetrahydrofuran-2-yl)methyl)amino)cyclohexyl)amino)-[2,4′-bipyridin]-6-yl)amino)methyl)tetrahydro-2H-pyran-4-carbonitrile]
13 | > 9.30 | N#CC1(CNc2cccc(-c3cc(N[C@H]4CC[C@H](NC[C@@H]5CCCO5)CC4)ncc3F)n2)CCOCC1 [Compound 483, 4-(((5′-fluoro-2′-((trans-4-((((S)-tetrahydrofuran-2-yl)methyl)amino)cyclohexyl)amino)-[2,4′-bipyridin]-6-yl)amino)methyl)tetrahydro-2H-pyran-4-carbonitrile]
14 | > 9.30 | N#CC1(CNc2cccc(-c3cc(N[C@H]4CC[C@H](NC[C@H]5CCCO5)CC4)ncc3F)n2)CCOCC1 [Compound 484, 4-(((5′-fluoro-2′-((trans-4-((((R)-tetrahydrofuran-2-yl)methyl)amino)cyclohexyl)amino)-[2,4′-bipyridin]-6-yl)amino)methyl)tetrahydro-2H-pyran-4-carbonitrile]
15 | 8.74 | NC(=O)C1(CNc2cccc(-c3cc(N[C@H]4CC[C@H](N)CC4)ncc3F)n2)CCOCC1 [Compound 485, 4-(((2′-((trans-4-aminocyclohexyl)amino)-5′-fluoro-[2,4′-bipyridin]-6-yl)amino)methyl)tetrahydro-2H-pyran-4-carboxamide]
16 | > 9.30 | N#CC1(CNc2cccc(-c3cc(N[C@H]4CC[C@H](N)CC4)ncc3F)n2)CC1 [Compound 486, 1-(((2′-((trans-4-aminocyclohexyl)amino)-5′-fluoro-[2,4′-bipyridin]-6-yl)amino)methyl)cyclopropane-carbonitrile]
17 | > 9.30 | NC(=O)C1(CNc2cccc(-c3cc(N[C@H]4CC[C@H](N)CC4)ncc3F)n2)CC1 [Compound 487, 1-(((2′-((trans-4-aminocyclohexyl)amino)-5′-fluoro-[2,4′-bipyridin]-6-yl)amino)methyl)cyclopropane-carboxamide]
18 | > 9.30 | COCCN[C@H]1CC[C@H](Nc2cc(-c3cccc(NCC4(C#N)CC4)n3)c(F)cn2)CC1 [Compound 488, 1-(((5′-fluoro-2′-((trans-4-((2-methoxyethyl)amino)cyclohexyl)amino)-[2,4′-bipyridin]-6-yl)amino)methyl)cyclopropane-carbonitrile]
19 | ≥ 9.30 | COC[C@H](C)N[C@H]1CC[C@H](Nc2cc(-c3cccc(NCC4(C#N)CCOCC4)n3)c(F)cn2)CC1 [Compound 489, 4-(((5′-fluoro-2′-((trans-4-(((S)-1-methoxypropan-2-yl)amino)cyclohexyl)amino)-[2,4′-bipyridin]-6-yl)amino)methyl)tetrahydro-2H-pyran-4-carbonitrile]
20 | > 9.30 | N#CC1(CNc2cccc(-c3cc(N[C@H]4CC[C@H](NC[C@H](O)C(F)(F)F)CC4)ncc3Cl)n2)CCOCC1 [Compound 490, 4-(((5′-chloro-2′-((trans-4-(((S)-3,3,3-trifluoro-2-hydroxypropyl)amino)cyclohexyl)amino)-[2,4′-bipyridin]-6-yl)amino)methyl)tetrahydro-2H-pyran-4-carbonitrile]
21 | > 9.30 | N#CC1(CNc2cccc(-c3cc(N[C@H]4CC[C@H](NC[C@@H](O)C(F)(F)F)CC4)ncc3Cl)n2)CCOCC1 [Compound 491, 4-(((5′-chloro-2′-((trans-4-(((R)-3,3,3-trifluoro-2-hydroxypropyl)amino)cyclohexyl)amino)-[2,4′-bipyridin]-6-yl)amino)methyl)tetrahydro-2H-pyran-4-carbonitrile]
22 | > 9.30 | N#CC1(CNc2cccc(-c3cc(N[C@H]4CC[C@H](CN)CC4)ncc3Cl)n2)CCOCC1 [Compound 493, 4-(((2′-((trans-4-(aminomethyl)cyclohexyl)amino)-5′-chloro-[2,4′-bipyridin]-6-yl)amino)methyl)tetrahydro-2H-pyran-4-carbonitrile]
23 | > 9.30 | CS(=O)(=O)NC[C@H]1CC[C@H](Nc2cc(-c3cccc(NCC4(C#N)CCOCC4)n3)c(Cl)cn2)CC1 [Compound 494, N-((trans-4-((5′-chloro-6-(((4-cyanotetrahydro-2H-pyran-4-yl)methyl)amino)-[2,4′-bipyridin]-2′-yl)amino)cyclohexyl)methyl) methanesulfonamide]
24 | > 9.30 | CC(C)S(=O)(=O)NC[C@H]1CC[C@H](Nc2cc(-c3cccc(NCC4(C#N)CCOCC4)n3)c(Cl)cn2)CC1 [Compound 495, N-((trans-4-((5′-chloro-6-(((4-cyanotetrahydro-2H-pyran-4-yl)methyl)amino)-[2,4′-bipyridin]-2′-yl)amino)cyclohexyl)methyl) propane-2-sulfonamide]
25 | > 9.30 | N#CC1(CNc2cccc(-c3cc(N[C@H]4CC[C@H](CNS(=O)(=O)c5ccccc5)CC4)ncc3Cl)n2)CCOCC1 [Compound 496, N-((trans-4-((5′-chloro-6-(((4-cyanotetrahydro-2H-pyran-4-yl)methyl)amino)-[2,4′-bipyridin]-2′-yl)amino)cyclohexyl)methyl) benzenesulfonamide]
26 | > 9.30 | COC(=O)NC[C@H]1CC[C@H](Nc2cc(-c3cccc(NCC4(C#N)CCOCC4)n3)c(Cl)cn2)CC1 [Compound 497, methyl ((trans-4-((5′-chloro-6-(((4-cyanotetrahydro-2H-pyran-4-yl)methyl)amino)-[2,4′-bipyridin]-2′-yl)amino)cyclohexyl)methyl) carbamate]
27 | > 9.30 | COCC(=O)NC[C@H]1CC[C@H](Nc2cc(-c3cccc(NCC4(C#N)CCOCC4)n3)c(Cl)cn2)CC1 [Compound 498, N-((trans-4-((5′-chloro-6-(((4-cyanotetrahydro-2H-pyran-4-yl)methyl)amino)-[2,4′-bipyridin]-2′-yl)amino)cyclohexyl)methyl)-2-methoxyacetamide]

Row | SMILES | pIC50
28 | COC[C@@H](C)N[C@H]1CC[C@H](Nc2cc(-c3cccc(NCC4(C#N)CCOCC4)n3)c(F)cn2)CC1 [Compound 471, 4-(((5′-fluoro-2′-((trans-4-(((R)-1-methoxypropan-2-yl)amino)cyclohexyl)amino)-[2,4′-bipyridin]-6-yl)amino)methyl)tetrahydro-2H-pyran-4-carbonitrile] | > 9.30
